Reference: patent publication US9233981B1, “Substituted phenyl hexahydropyrano[3,4-d][1,3]thiazin-2-amine compounds” (Pfizer Inc., priority 2013, dated 2016)

Tests used:
BACE1 enzyme = BACE1 enzyme (Homo sapiens (Human), UniProt P56817); assay: BACE1 Cell-Free Assay (fluorescence polarization, cleavage of synthetic APP substrate); type: biochemical; settings: geometric mean of 2-3 determinations; Examples 32-34 (footnote b) single determination
Source text: Beta-secretase (BACE) is one of the enzymes involved in the generation of the amyloid beta peptide found in the amyloid plaques of Alzheimer's Disease patients. This assay measures the inhibition of the beta-secretase enzyme as it cleaves a non-native peptide.
A synthetic APP substrate that can be cleaved by beta-secretase having N-terminal biotin and made fluorescent by the covalent attachment of Oregon Green at the Cys residue is used to assay beta-secretase activity in the presence or absence of the inhibitory compounds. The substrate is Biotin-GLTNIKTEEISEISY^EVEFR-C[Oregon Green]KK-OH. The BACE1 enzyme is affinity purified material from conditioned media of CHO-K1 cells that have been transfected with a soluble BACE construct (BACE1deltaTM96His). Compounds are incubated in a log dose response curve from a top concentration of 100 μM with BACE1 enzyme and the biotinylated fluorescent peptide in 384-well black plates (Thermo Scientific #4318). BACE1 is at a final concentration of 0.1 nM with a final concentration of peptide substrate of 150 nM in a reaction volume of 30 μL assay buffer [100 mM sodium acetate, pH 4.5 (brought to pH with acetic acid), and 0.001% Tween-20]. Plates are covered and incubated for 3 hours at 37° C. The reaction is stopped with the addition of 30 μL of 1.5 μM Streptavidin (Pierce, #21125). After a 10 minute incubation at room temperature, plates are read on a PerkinElmer EnVision for fluorescence polarization (Ex485 nm/Em530 nm). The activity of the beta-secretase enzyme is detected by changes in the fluorescence polarization that occur when the substrate is cleaved by the enzyme.

[1] = system: sAPPβ levels in H4 human neuroglioma cells over-expressing the wild-type human APP695; assay: Whole Cell Assay (In Vitro sAPPβ Assay), TMB-ELISA; type: cell-based; settings: 18 hours, geometric mean of 2-3 determinations, Examples 32-34 (footnote b) single determination
Experimental: Whole Cell Assay (In Vitro sAPPpβ Assay):
H4 human neuroglioma cells over-expressing the wild-type human APP695 are treated for 18 hours with compound in a final concentration 1% DMSO. sAPPβ levels are measured using TMB-ELISA with capture APP N-terminal antibody (Affinity BioReagents, OMA1-03132), wild-type sAPPβ specific reporter p192 (Elan), and tertiary anti rabbit-HRP (GE Healthcare).

Chain of BACE1 enzyme (P56817 46-457): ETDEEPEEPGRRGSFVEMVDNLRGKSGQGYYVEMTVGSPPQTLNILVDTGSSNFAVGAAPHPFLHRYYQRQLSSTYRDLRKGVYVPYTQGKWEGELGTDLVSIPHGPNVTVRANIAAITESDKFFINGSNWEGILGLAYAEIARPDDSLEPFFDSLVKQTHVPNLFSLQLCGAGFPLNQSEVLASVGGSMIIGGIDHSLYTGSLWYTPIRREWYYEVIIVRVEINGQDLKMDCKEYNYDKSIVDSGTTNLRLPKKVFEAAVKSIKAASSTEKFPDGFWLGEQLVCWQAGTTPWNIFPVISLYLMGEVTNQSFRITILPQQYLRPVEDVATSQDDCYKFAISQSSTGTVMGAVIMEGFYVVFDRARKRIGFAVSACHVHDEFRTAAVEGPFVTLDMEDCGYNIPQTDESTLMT

Structure (SMILES) | IC50 (BACE1 enzyme) | IC50 [1]
NC1=N[C@@]2(c3ccc(F)cc3F)CO[C@@H](c3ccc(F)cc3F)C[C@H]2CS1 [Example 4, (4aR,6R,8aS)-6,8a-bis(2,4-difluorophenyl)-4,4a,5,6,8,8a-hexahydropyrano[3,4-d][1,3]thiazin-2-amine] | 39 nM | 0.025 nM
COc1ccccc1[C@H]1C[C@H]2CSC(N)=N[C@@]2(c2ccc(F)cc2F)CO1 [Example 17, (4aR,6R,8aS)-8a-(2,4-difluorophenyl)-6-(2-methoxyphenyl)-4,4a,5,6,8,8a-hexahydropyrano[3,4-d][1,3]thiazin-2-amine] | 2210 nM | 0.691 nM
C[C@H]1SC(N)=N[C@@]2(c3ccc(F)cc3F)CO[C@@H](c3cccc(C#N)c3)C[C@@H]12 [Example 34, (4R,4aR,6R,8aS)-8a-(2,4-Difluorophenyl)-6-(3-cyanophenyl)-4-methyl-4,4a,5,6,8,8a-hexahydropyrano[3,4-d][1,3]thiazin-2-amine] | 14 nM | 0.004 nM
COc1ccc([C@H]2C[C@H]3CSC(N)=N[C@@]3(c3ccc(F)cc3F)CO2)c(F)c1 [Example 20, (4aR,6R,8aS)-8a-(2,4-difluorophenyl)-6-(2-fluoro-4-methoxyphenyl)-4,4a,5,6,8,8a-hexahydropyrano[3,4-d][1,3]thiazin-2-amine] | 83 nM | 0.039 nM
CCOc1ccc([C@H]2C[C@H]3CSC(N)=N[C@@]3(c3ccc(F)cc3F)CO2)cc1 [Example 23, (4aR,6R,8aS)-8a-(2,4-difluorophenyl)-6-(4-ethoxyphenyl)-4,4a,5,6,8,8a-hexahydropyrano[3,4-d][1,3]thiazin-2-amine] | 11 nM | 0.021 nM
NC1=N[C@@]2(c3ccc(F)cc3F)CO[C@@H](c3ccc(Cl)cc3)C[C@H]2CS1 [Example 12, (4aR,6R,8aS)-6-(4-chlorophenyl)-8a-(2,4-difluorophenyl)-4,4a,5,6,8,8a-hexahydropyrano[3,4-d][1,3]thiazin-2-amine] | 15 nM | 0.016 nM
Cc1ccc([C@H]2C[C@H]3CSC(N)=N[C@@]3(c3ccc(F)cc3F)CO2)cc1 [Example 6, (4aR,6R,8aS)-8a-(2,4-difluorophenyl)-6-(4-methylphenyl)-4,4a,5,6,8,8a-hexahydropyrano[3,4-d][1,3]thiazin-2-amine] | 24 nM | 0.005 nM
